Reference: patent US6706740B2, “Fungicidal heterocyclic aromatic amides and their compositions, methods of use and preparation” (Dow AgroSciences LLC, priority 1999, dated 2004)

Key:
[1] = tested on: Septoria tritici—SEPTTR; test: Leaf Blotch of Wheat, in vivo whole plant, 24 Hour Protectant; settings: 100 ppm spray, 24 hour protectant, wheat, control of fungal infection vs untreated plants; for pest or weed control at 100 ppm: Zymoseptoria tritici, 24 h, read-out: SEPTTR in vivo 1 Day Protectant
[2] = tested on: Ustilago maydis (USTIMA); test: microbe, parasite or virus in culture; assay type: cell-based; settings: Mycosarcoma maydis, read-out: USTIMA in vitro Growth Inhibition
[3] = tested on: Leptosphaeria nodorum—LEPTNO; test: Glume Blotch of Wheat, in vivo whole plant, 24 Hour Protectant; settings: 100 ppm spray, 24 hour protectant, wheat, control of fungal infection vs untreated plants; for pest or weed control at 100 ppm: Leptosphaeria, read-out: LEPTNO in vivo 1 Day Protectant
[4] = tested on: Puccinia recondita—PUCCRT; test: Brown Rust of Wheat, in vivo whole plant, 24 Hour Protectant; settings: 100 ppm spray, 24 hour protectant, wheat, control of fungal infection vs untreated plants; for pest or weed control at 100 ppm: Puccinia, read-out: PUCCRT in vivo 1 Day Protectant
[5] = tested on: Erysiphe graminis—ERYSGT; test: Powdery Mildew of Wheat, in vivo whole plant, 24 Hour Protectant; settings: Erysiphe; 100 ppm spray, 24 hour protectant, wheat; control of fungal infection vs untreated plants; read-out: ERYSGT in vivo 1 Day Protectant
[6] = tested on: Magnaporthe grisea (Pyricularia oryzae—PYRIOR); test: microbe, parasite or virus in culture; assay type: cell-based; settings: Pyricularia oryzae, read-out: PYRIOR in vitro Growth Inhibition
[7] = tested on: Mycosphaerella graminicola (Septoria tritici—SEPTTR); test: In vitro fungal growth inhibition, Mycosphaerella graminicola (SEPTTR); assay type: cell-based; settings: Zymoseptoria tritici; 25 ppm in growth medium; read-out: SEPTTR in vitro Growth Inhibition
[8] = tested on: Phytophthora infestans (PHYTIN); test: microbe, parasite or virus in culture; assay type: cell-based; settings: Phytophthora infestans, read-out: PHYTIN in vitro Growth Inhibition
[9] = tested on: Phytophthora infestans—PHYTIN; test: whole plant or invertebrate; assay type: in vivo; settings: Phytophthora, in Solanum lycopersicum, 24 h, read-out: PHYTIN in vivo 1 Day Protectant
[10] = tested on: Rhizoctonia solani (RHIZSO); test: microbe, parasite or virus in culture; assay type: cell-based; settings: Rhizoctonia solani, read-out: RHIZSO in vitro Growth Inhibition
[11] = tested on: Stagonospora nodorum (Leptosphaeria nodorum—LEPTNO); test: In vitro fungal growth inhibition, Stagonospora nodorum (LEPTNO); assay type: cell-based; settings: Leptosphaeria; 25 ppm in growth medium; read-out: LEPTNO in vitro Growth Inhibition

Structure (SMILES)	pest or weed control at 100 ppm [1] [%]	inhibition at 25 ppm [2] [%]	pest or weed control at 100 ppm [3] [%]	pest or weed control at 100 ppm [4] [%]	pest or weed control at 100 ppm [5] [%]	inhibition at 25 ppm [6] [%]	inhibition at 25 ppm [7] [%]	inhibition at 25 ppm [8] [%]	pest or weed control at 100 ppm [9] [%]	inhibition at 25 ppm [10] [%]	inhibition at 25 ppm [11] [%]	SEPTTR in vivo 1 Day Protectant [1]	LEPTNO in vivo 1 Day Protectant [3]	PUCCRT in vivo 1 Day Protectant [4]
Cc1cc(C)cc(NC(=O)c2ncccc2O)c1 [Compound 215]	< 25	< 80	< 25	< 25	< 25	< 80	> 80	< 80	< 25	< 80	< 80			
Cc1cccc(CNC(=O)c2ncccc2O)c1 [Compound 222]	< 25	< 80	< 25	25 to 74	< 25	< 80	< 80	< 80	< 25	< 80	< 80			
CC(NC(=O)c1ncccc1O)c1ccc(Cl)cc1 (centres unmarked) [Compound 230]	25 to 74	< 80	25 to 74	< 25	< 25	> 80	> 80	> 80	< 25	< 80	> 80			
C[C@@H](NC(=O)c1ncccc1O)c1cccc2ccccc12 [Compound 231]	< 25	< 80	< 25	< 25	< 25	> 80	< 80	< 80	< 25	< 80	< 80			
C[C@H](NC(=O)c1ncccc1O)c1cccc2ccccc12 [Compound 232]	< 25	< 80	< 25	< 25	25 to 74	> 80	> 80	< 80	< 25	< 80	< 80			
O=C(NCCc1ccc(Cl)cc1)c1ncccc1O [Compound 233, N-(2-(4-CHLOROPHENYL)ETHYL)-3-HYDROXYPYRIDINE-2-CARBOXAMIDE]	25 to 74	> 80	< 25	< 25	< 25	> 80	> 80	> 80	< 25	< 80	> 80			
O=C(NCCCCc1ccccc1)c1ncccc1O [Compound 234]	25 to 74	< 80	< 25	< 25	< 25	> 80	< 80	> 80	< 25	< 80	> 80			
O=C(Nc1nccs1)c1ncccc1O [Compound 235]	< 25	> 80	< 25	< 25	< 25	> 80	> 80	> 80	< 25	> 80	> 80			
COc1ccnc(C(=O)NCC#CCCl)c1O [Compound 239]	25 to 74	< 80	25 to 74	25 to 74	< 25	< 80	< 80	< 80	< 25	< 80	< 80			
COc1ccnc(C(=O)NCC#Cc2ccccc2)c1O [Compound 240]		< 80	25 to 74	< 25	< 25	< 80	< 80	< 80	< 25	< 80	< 80	+ +		
COc1ccnc(C(=O)NCC2C(C=C(C)C)C2(C)C)c1O (centres unmarked) [Compound 241]	25 to 74	< 80	25 to 74	25 to 74	< 25	< 80	< 80	> 80	< 25	> 80	< 80			
COc1ccnc(C(=O)NC/C=C(\C)CCC=C(C)C)c1O [Compound 242]	25 to 74	> 80	< 25	< 25	< 25	> 80	> 80	> 80	< 25	> 80	> 80			
COc1ccnc(C(=O)NCCCc2cccnc2)c1O [Compound 243]	25 to 74	< 80	25 to 74	25 to 74	< 25	< 80	< 80	< 80	< 25	< 80	< 80			
COc1ccnc(C(=O)NCC2COCCOCCOCCOCCO2)c1O (centres unmarked) [Compound 245]	25 to 74	< 80	25 to 74	< 25	< 25	< 80	< 80	< 80	< 25	< 80	< 80			
COc1ccnc(C(=O)NC(C)c2ccc(C(F)(F)F)cc2)c1O (centres unmarked) [Compound 247]	25 to 74	< 80	25 to 74	< 25	< 25	< 80	> 80	< 80	< 25	< 80	> 80			
COc1ccnc(C(=O)NC2CCCC2O)c1O (centres unmarked) [Compound 248]	< 25	< 80	25 to 74	< 25	< 25	< 80	< 80	< 80	< 25	< 80	< 80			
COc1ccnc(C(=O)NC2CCCC2=O)c1O (centres unmarked) [Compound 249]	25 to 74	< 80	25 to 74	< 25	< 25	< 80	< 80	< 80	< 25	< 80	< 80			
CCC1(C)CC(NC(=O)c2nccc(OC)c2O)CC(C)(C)C1 (centres unmarked) [Compound 251]		< 80			< 25	< 80	> 80	> 80	25 to 74	< 80	> 80	+ +	+ +	+ +
COc1ccnc(C(=O)NC2CC(C)(C)CC(C)(C3CC3)C2)c1O (centres unmarked) [Compound 252]	25 to 74	< 80	25 to 74	25 to 74	< 25	> 80	> 80	> 80	25 to 74	> 80	> 80			
